Earlier results on one substance are cited in patent publication US20030224036A1, “Hla class I a2 tumor associated antigen peptides and vaccine compositions” (priority 1999, published 2003).

The data set has as its system PBMC of cervical cancer patients.

On to “aKXVAAWTLKAAa-NH2 [PADRE, a=D-alanine, X=cyclohexylalanine]”, for which the responding patients (95% interval 10-65%) is given as 33%. Moreover, the safety in patients entry (recurrent or residual cervical carcinoma) is listed as “favorable safety profile”.
